Assay results: ChEMBL document CHEMBL3217687, “Identification of multifunctional small molecule-based reversible monoamine oxidase inhibitors” (Medchemcomm, 2011)

Key:
[1] = target: T1, Amine oxidase [flavin-containing] B (Homo sapiens, UniProt P27338); assay: Inhibition of human recombinant MAOB assessed as kynuramine conversion to 4-hydroxyquinoline after 20 mins by fluorescence assay
T1 sequence (P27338 whole entry): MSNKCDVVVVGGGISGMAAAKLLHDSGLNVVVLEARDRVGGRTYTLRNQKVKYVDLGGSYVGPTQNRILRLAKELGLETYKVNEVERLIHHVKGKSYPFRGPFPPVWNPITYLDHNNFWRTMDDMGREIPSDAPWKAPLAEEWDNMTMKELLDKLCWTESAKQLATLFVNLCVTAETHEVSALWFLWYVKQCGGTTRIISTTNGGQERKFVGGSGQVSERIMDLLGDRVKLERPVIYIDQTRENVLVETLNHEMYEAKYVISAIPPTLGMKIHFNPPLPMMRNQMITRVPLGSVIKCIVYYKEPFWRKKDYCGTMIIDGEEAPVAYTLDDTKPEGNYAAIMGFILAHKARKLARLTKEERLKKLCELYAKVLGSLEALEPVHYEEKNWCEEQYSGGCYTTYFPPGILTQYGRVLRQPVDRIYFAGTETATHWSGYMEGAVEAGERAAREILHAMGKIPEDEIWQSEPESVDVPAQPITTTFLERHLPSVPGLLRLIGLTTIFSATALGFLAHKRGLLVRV

[2] = target: T2, Amine oxidase [flavin-containing] A (Homo sapiens, UniProt P21397); assay: Inhibition of human recombinant MAOA assessed as kynuramine conversion to 4-hydroxyquinoline after 20 mins by fluorescence assay
T2 sequence (P21397 whole entry): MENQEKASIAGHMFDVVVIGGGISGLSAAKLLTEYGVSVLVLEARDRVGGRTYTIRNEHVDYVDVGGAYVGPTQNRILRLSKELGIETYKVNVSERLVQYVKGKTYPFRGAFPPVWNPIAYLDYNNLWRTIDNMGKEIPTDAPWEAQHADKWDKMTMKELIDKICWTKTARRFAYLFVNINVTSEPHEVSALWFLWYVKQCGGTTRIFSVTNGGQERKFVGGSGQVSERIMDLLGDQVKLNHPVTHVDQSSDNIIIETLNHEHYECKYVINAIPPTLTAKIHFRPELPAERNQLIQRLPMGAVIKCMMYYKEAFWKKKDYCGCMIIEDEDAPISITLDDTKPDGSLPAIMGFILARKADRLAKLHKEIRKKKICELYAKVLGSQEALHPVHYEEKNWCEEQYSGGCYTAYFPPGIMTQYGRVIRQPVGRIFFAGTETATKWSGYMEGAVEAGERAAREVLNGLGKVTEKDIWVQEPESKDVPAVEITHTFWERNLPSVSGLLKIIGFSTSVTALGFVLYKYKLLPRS

[3] = target: T1, Amine oxidase [flavin-containing] B; assay: Binding affinity to human recombinant MAOB
[4] = target: T2, Amine oxidase [flavin-containing] A; assay: Binding affinity to human recombinant MAOA
Homo sapiens = organism: Homo sapiens; assay: Selectivity index, ratio of Ki for human recombinant MAOA to Ki for human recombinant MAOB

Compound	IC50 [1]	IC50 [2]	Ki [3]	Ki [4]	Ratio Ki (Homo sapiens)
CN(C)c1ccc(/N=C/c2ccccn2)cc1	0.068 µM	0.36 µM	0.04 µM	0.1 µM	2.8
c1ccc(NCc2ccccn2)cc1	182 µM	20 µM	97 µM	5.7 µM	0.06
